# Test results published in patent publication US11596623B2, “Methods for treating virus infection or proliferation” (HOWARD UNIVERSITY, priority 2018, dated 2023).
# Tested on: IRES (β-Globin)
# Experiment: Dual-luciferase reporter assay, β-Globin control construct
# Assay type: cell-based
# Experimental: Dual-luciferase reporter constructs were generously provided from (Plank et al., 2013) and (Carvajal et al., 2016). In the plasmid constructs, renilla luciferase (Rluc) translation is cap-dependent, while the firefly luciferase (Flue) translation depends on HIV-1 IRES. The Fluc/Rluc ratio was measured in the presence or the absence of the compounds in HEK293T cells transfected with the dual-luciferase plasmid bearing either Beta-globin, HCV, HIV-1 gag, EMVC or HIV-1 ladder sequences. Cells get transfected with the plasmids using Lipofectamine 3000 Reagent, from Thermo Fisher Scientific. Then treated with RACK1 inhibitors and its analogs (SD-29, and SD-29-14) at different concentrations; 1 μM, 10 μM, and […]. Moreover, the cells were treated with Dimethyl sulfoxide (DMSO) as a vehicle control or left untreated. Luc-Pair™ Duo-Luciferase Assay Kit 2.0 Kit (Genecopoeia) was used to measure the luciferase activity. HEK293T cells were grown to reach no more than 90% confluent at the desired time of lysate preparation.
# For measuring Fluc/Rluc ratio and bioluminescence, Both Renilla and Firefly substrates were added to the same wells containing respective plasmid constructs. After the described incubation period, luciferase activity was evaluated from bioluminescence images acquired by a Perkin Elmer IVIS Spectrum Imaging system immediately after adding luciferase substrates. The Spectral Un-mixing options integrated in the software was used to un-mix the respective luminescence from Renilla and Firefly. Bioluminescence intensity in each well was quantified in units of photons per second per centimeter squared per steradian (p/s/cm^2/sr) by drawing a polygonal region of interest over the signals in images using Living Image 3.0 software (Caliper Life Sciences).
# Dual-luciferase reporter constructs were used to determine if the drugs targeting RACK1 affect IRES-mediated translation. Renilla luciferase (Rluc) translation dependent on cap and the firefly luciferase (Fluc) translation dependent on HIV-1 IRES were utilized. The Fluc/Rluc ratio was measured in the presence or the absence of the compounds in the HEK293T cells transfected with the dual-luciferase plasmid bearing the predicted IRES from HIV-1 driving a firefly luciferase reporter gene and a cap dependent renilla luciferase from the same construct. As a control, HCV IRES is used within the dual luciferase construct (instead of HIV-1) as a positive control as HCV is known to use IRES solely for translating its transcripts, while Beta-globin plasmid was used as a negative control. The dual-luciferase reporters, as used here, are previously reported where HIV-1 IRES were reported (Plank, T. D., J. T. Whitehurst, and J. S. Kieft, Cell type specificity and structural determinants of IRES activity from the 5′ leaders of different HIV-1 transcripts. Nucleic Acids Res, 2013. 41(13): p. 6698-714; Carvajal, F., et al., Structural domains within the HIV-1 mRNA and the ribosomal protein S25 influence cap-independent translation initiation. FEBS J, 2016. 283(13): p. 2508-27.) The cells were transfected with the plasmids using Lipofectamine, then treated with RACK1 inhibitors (SD-29 and SD29-14) at different concentrations (1, 10, and 50 μM). Control cells were treated with DMSO or left untreated. SV40 promoter produces a capped and poly-adenylated dicistronic message. Translation of the upstream cistron (renilla luciferase, RLUC) is cap dependent, whereas translation of the downstream cistron (firefly luciferase, FLUC) occurs cap independently. The dual luciferase constructs are depicted in FIG. 1A. IRES activity is measured by calculating the ratio of FLUC to RLUC light production (RLUs) (Plank et al., 2013).
Structure (SMILES),FLUC (1 μM) [p/s/cm^2/sr],FLUC/RLUC Ratio (1 μM),RLUC (1 μM) [p/s/cm^2/sr],FLUC (10 μM) [p/s/cm^2/sr],FLUC/RLUC Ratio (10 μM),RLUC (10 μM) [p/s/cm^2/sr],FLUC (50 μM) [p/s/cm^2/sr],FLUC/RLUC Ratio (50 μM),RLUC (50 μM) [p/s/cm^2/sr]
Nn1c(S)nnc1-c1ccc(F)cc1 [SD-29],4.02E+04,0.068 ± 0.002,5.82E+05,3.52E+04,0.074 ± 0.006,4.70E+05,3.74E+04,0.093 ± 0.004,4.01E+05
Nn1c(S)nnc1-c1cc(Cl)cc(Cl)c1 [SD29-14],2.21E+04,0.067 ± 0.002,,2.72E+04,0.062 ± 0.003,4.39E+05,1.74E+04,0.067 ± 0.004,2.62E+05
